Reference: PMC3351444, “Molecular Evolution of a Peptide GPCR Ligand Driven by Artificial Neural Networks” (PLoS ONE, 2012)
Read-outs that look alike come from different tables or passages of the source. Square brackets hold non-standard residues; d marks the D form. Ends that are not written are not given here. Peptide text beside a SMILES is read from it.

Experiments:
human CMKLR1 = target: T1, human CMKLR1 (Homo sapiens, UniProt Q99788); assay: Ca2+ mobilization (CellLux imaging) agonist assay in HEK293A cells expressing CMKLR1 and Gα15; format: cell-based
T1 construct: host or cells: HEK293A (Invitrogen), stably expressing human Gα15
T1 sequence (Q99788 1-373): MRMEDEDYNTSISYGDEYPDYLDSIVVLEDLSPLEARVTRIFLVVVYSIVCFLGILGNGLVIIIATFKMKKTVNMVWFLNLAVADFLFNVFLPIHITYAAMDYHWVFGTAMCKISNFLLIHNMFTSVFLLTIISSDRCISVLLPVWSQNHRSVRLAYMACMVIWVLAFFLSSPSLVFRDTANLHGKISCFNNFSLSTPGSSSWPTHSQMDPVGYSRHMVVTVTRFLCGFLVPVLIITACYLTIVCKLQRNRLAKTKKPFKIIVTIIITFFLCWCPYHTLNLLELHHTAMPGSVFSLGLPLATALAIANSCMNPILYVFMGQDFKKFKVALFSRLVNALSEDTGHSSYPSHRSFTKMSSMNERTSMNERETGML
Outline: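 Agonist-evoked Ca2+ rise, read as FLUO4-AM fluorescence by imaging, in HEK293A cells carrying CMKLR1 plus Gα15. Peptides were diluted in C1 solution (pH 7.4) containing 0.1% BSA. Duplicate signals were averaged, corrected for buffer wells and normalized to background, and EC50 was fitted from amplitude versus concentration.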

[1] = In vitro peptide stability in human serum (RP-HPLC); details: for half-life at 50 µg/mL: human, human serum, 25% (v/v) in RPMI; for t1/2: metabolic stability in human serum
Experimental: The initial time is recorded, and at known time intervals 50 µL of the reaction solution is removed and added to 100 µL of 6% aqueous trichloroacetic acid (TCA) for precipitation of serum proteins. […] The reaction supernatant is then analyzed using RP-HPLC (Agilent 1200 LC System) on a ZORBAX Eclipse XDB-C18, 4.6×150 mm, 5 µm column (Agilent). […] Fluorescence is detected at an excitation wavelength of 280 nm and emission wavelength of 340 nm. Kinetic analysis was carried out by least-squares analysis of the logarithm of the integration peak area versus time.

[2] = Ca2+ mobilization, CMKLR1, decimal comma
[3] = Ca2+ mobilization, CMKLR1, decimal comma, NR where no EC50 is given, read-out: EC50
[4] = intracellular calcium mobilization, HEK293 cells expressing CMKLR1, mean of three independent experiments ± SD, read-out: activity: EC50 ±SD

Compound | max response (human CMKLR1; [2]) | EC50 (human CMKLR1; [3]) | half-life at 50 µg/mL [1] | EC50 (human CMKLR1; [4]) | t1/2 [1]
CC(C)C[C@H](NC(=O)[C@H](Cc1ccccc1)NC(=O)[C@H](CCC(N)=O)NC(=O)CNC(=O)[C@H]1CCCN1C(=O)[C@@H](CC(C)C)NC(=O)[C@@H](N)Cc1ccc(O)cc1)C(=O)N[C@@H](Cc1ccccc1)C(=O)N[C@@H](CO)C(=O)O [compound 75] (H-Y[dL][dP]GQFLFS-OH; N-terminus assumed) | 0,99 DF/F0 | 5.58 µM | 49 min | – | –
CC(C)C[C@H](NC(=O)[C@H](N)Cc1ccc(O)cc1)C(=O)N1CCC[C@H]1C(=O)N[C@H](CO)C(=O)N[C@@H](CCC(N)=O)C(=O)N[C@@H](Cc1ccc(O)cc1)C(=O)N[C@@H](C)C(=O)N[C@@H](Cc1ccccc1)C(=O)N[C@H](CO)C(=O)O [yLPsQYAFs] (H-[dY]LP[dS]QYAF[dS]-OH; N-terminus assumed) | – | – | 1410 ± 85 min | 0.0029 ± 0.00134 µM | –
FLPGQFLPG-OH [compound 63] | 0,81 DF/F0 | 0.554 µM | 46 min | – | –
CC(C)C[C@H](N)C(=O)N[C@H](Cc1c[nH]c2ccccc12)C(=O)NCC(=O)NCC(=O)N1CCC[C@H]1C(=O)N[C@@H](Cc1ccc(O)cc1)C(=O)N[C@H](Cc1c[nH]c2ccccc12)C(=O)N[C@@H](Cc1ccc(O)cc1)C(=O)N[C@H](CO)C(=O)O [compound 128] (H-L[dW]GGPY[dW]Y[dS]-OH; N-terminus assumed) | 1,45 DF/F0 | 0.0387 µM | 480 min | – | –
NC(=O)CC[C@H](NC(=O)CNC(=O)[C@@H]1CCCN1C(=O)[C@H](Cc1ccccc1)NC(=O)[C@H](N)Cc1ccc(O)cc1)C(=O)N[C@@H](Cc1ccc(O)cc1)C(=O)N[C@H](Cc1c[nH]c2ccccc12)C(=O)N[C@@H](Cc1ccccc1)C(=O)N[C@H](Cc1ccccc1)C(=O)O [compound 133] (H-[dY]FPGQY[dW]F[dF]-OH; N-terminus assumed) | 1,62 DF/F0 | 0.0674 µM | 20 min | – | –
CC(C)[C@H](NC(=O)[C@@H](N)Cc1ccc(O)cc1)C(=O)N1CCC[C@H]1C(=O)NCC(=O)N[C@@H](CCC(N)=O)C(=O)N[C@@H](Cc1ccc(O)cc1)C(=O)N[C@@H](C)C(=O)N[C@@H](Cc1ccccc1)C(=O)N[C@H](CO)C(=O)O [compound 86] (H-YVPGQYAF[dS]-OH; N-terminus assumed) | 1,57 DF/F0 | 0.0218 µM | 24 min | – | –
CC(C)C[C@H](NC(=O)[C@H](N)Cc1ccccc1)C(=O)N1CCC[C@H]1C(=O)NCC(=O)N[C@@H](CCC(N)=O)C(=O)N[C@@H](Cc1ccc(O)cc1)C(=O)N[C@@H](C)C(=O)N[C@@H](Cc1ccccc1)C(=O)N[C@H](Cc1ccccc1)C(=O)O [fLPGQYAFf] (H-[dF]LPGQYAF[dF]-OH; N-terminus assumed) | – | – | 1160 ± 41 min | 0.0082 ± 0.00396 µM | –
C[C@@H](NC(=O)[C@H](Cc1ccc(O)cc1)NC(=O)[C@H](CCC(N)=O)NC(=O)[C@H](N)Cc1ccccc1)C(=O)N[C@@H](CCC(N)=O)C(=O)N[C@@H](Cc1ccc(O)cc1)C(=O)N[C@H](Cc1c[nH]c2ccccc12)C(=O)N[C@@H](Cc1ccccc1)C(=O)N[C@H](CO)C(=O)O [compound 146] (H-[dF]QY[dA]QY[dW]F[dS]-OH; N-terminus assumed) | 1,49 DF/F0 | 0.171 µM | 2260 min | – | –
FLPGQYAFS-OH | – | – | 28 ± 1 min | 0.00275 ± 0.00014 µM | –
CC(C)C[C@H](NC(=O)[C@H](N)Cc1ccc(O)cc1)C(=O)N1CCC[C@@H]1C(=O)NCC(=O)N[C@@H](CCC(N)=O)C(=O)N[C@@H](Cc1ccc(O)cc1)C(=O)N[C@@H](C)C(=O)N[C@@H](Cc1ccccc1)C(=O)N[C@@H](CO)C(=O)O [compound 104] (H-[dY]L[dP]GQYAFS-OH; N-terminus assumed) | 1,73 DF/F0 | 0.246 µM | 80 min | – | –
CC(C)C[C@H](NC(=O)[C@H](Cc1ccc(O)cc1)NC(=O)[C@H](CCC(N)=O)NC(=O)[C@@H](Cc1ccccc1)NC(=O)[C@@H](CC(=O)O)NC(=O)[C@@H]1CCCN1C(=O)[C@H](CC(C)C)NC(=O)[C@@H](N)Cc1ccc(O)cc1)C(=O)N1CCC[C@H]1C(=O)O [compound 148] (H-YLP[dD][dF]QYLP-OH; N-terminus assumed) | 1,74 DF/F0 | 0.207 µM | 32 min | – | –
CC(C)C[C@H](NC(=O)[C@@H](N)Cc1ccc(O)cc1)C(=O)N1CCC[C@H]1C(=O)N[C@H](CCC(N)=O)C(=O)N[C@@H](CCC(N)=O)C(=O)N[C@@H](Cc1ccc(O)cc1)C(=O)N[C@@H](C)C(=O)N[C@@H](Cc1ccccc1)C(=O)N[C@H](Cc1ccccc1)C(=O)O [compound 123] (H-YLP[dQ]QYAF[dF]-OH; N-terminus assumed) | 1,74 DF/F0 | – | – | – | 87 min
CC(C)C[C@H](NC(=O)[C@@H](N)Cc1ccc(O)cc1)C(=O)N1CCC[C@H]1C(=O)NCC(=O)N[C@@H](CCC(N)=O)C(=O)N[C@@H](Cc1ccc(O)cc1)C(=O)N[C@@H](C)C(=O)N[C@@H](Cc1ccccc1)C(=O)N[C@H](Cc1ccccc1)C(=O)O [compound 80] (H-YLPGQYAF[dF]-OH; N-terminus assumed) | 1,77 DF/F0 | 0.00021 µM | 36 min | – | –
CC(C)C[C@H](NC(=O)[C@@H](N)Cc1ccc(O)cc1)C(=O)N1CCC[C@H]1C(=O)N[C@H](CCC(N)=O)C(=O)N[C@@H](CCC(N)=O)C(=O)N[C@@H](Cc1ccc(O)cc1)C(=O)N[C@@H](C)C(=O)N[C@@H](Cc1ccccc1)C(=O)N[C@H](Cc1ccccc1)C(=O)O [YLPqQYAFf] (H-YLP[dQ]QYAF[dF]-OH; N-terminus assumed) | – | – | 87 ± 19 min | 0.00424 ± 0.00187 µM | –
CC(C)C[C@H](NC(=O)[C@@H](N)Cc1ccc(O)cc1)C(=O)N1CCC[C@H]1C(=O)NCC(=O)N[C@@H](CCC(N)=O)C(=O)N[C@@H](Cc1ccc(O)cc1)C(=O)N[C@H](Cc1c[nH]c2ccccc12)C(=O)N[C@@H](Cc1ccccc1)C(=O)N[C@H](Cc1ccccc1)C(=O)O [compound 122] (H-YLPGQY[dW]F[dF]-OH; N-terminus assumed) | 1,54 DF/F0 | – | – | – | 159 min
CC(C)C[C@H](NC(=O)[C@@H](N)Cc1ccc(O)cc1)C(=O)N1CCC[C@H]1C(=O)NCC(=O)N[C@@H](CCC(N)=O)C(=O)N[C@@H](Cc1ccccc1)C(=O)N[C@@H](C)C(=O)N[C@H](Cc1ccccc1)C(=O)N[C@@H](Cc1ccccc1)C(=O)O [compound 42] (H-YLPGQFA[dF]F-OH; N-terminus assumed) | 1,07 DF/F0 | 0.00893 µM | 30 min | – | –
LLPGLFLKL-OH [compound 74] | 0,85 DF/F0 | 5.12 µM | 39 min | – | –
C[C@H](NC(=O)[C@H](Cc1ccccc1)NC(=O)[C@H](C)NC(=O)[C@H](Cc1ccc(O)cc1)NC(=O)[C@H](C)NC(=O)[C@H](Cc1ccccc1)NC(=O)[C@@H](CO)NC(=O)[C@H](Cc1ccccc1)NC(=O)[C@@H](N)CCC(N)=O)C(=O)O [compound 102] (H-QF[dS]FAYAFA-OH; N-terminus assumed) | 1,78 DF/F0 | 0.143 µM | 83 min | – | –
CC(C)C[C@H](N)C(=O)N[C@H](Cc1ccccc1)C(=O)NCC(=O)N1CCC[C@@H]1C(=O)N[C@@H](Cc1ccc(O)cc1)C(=O)NCC(=O)N[C@H](Cc1c[nH]c2ccccc12)C(=O)N[C@H](CO)C(=O)N[C@@H](C)C(=O)O [compound 138] (H-L[dF]G[dP]YG[dW][dS]A-OH; N-terminus assumed) | 1,97 DF/F0 | 0.104 µM | 637 min | – | –
CC(C)C[C@H](NC(=O)[C@@H](N)Cc1ccc(O)cc1)C(=O)N1CCC[C@H]1C(=O)NCC(=O)N[C@@H](CCC(N)=O)C(=O)N[C@@H](Cc1ccccc1)C(=O)N[C@H](Cc1ccc(O)cc1)C(=O)N[C@@H](Cc1ccccc1)C(=O)N[C@@H](CO)C(=O)O [compound 57] (H-YLPGQF[dY]FS-OH; N-terminus assumed) | 0,89 DF/F0 | 0.119 µM | 26 min | – | –
CC(C)C[C@H](NC(=O)[C@H](C)NC(=O)[C@H](Cc1ccc(O)cc1)NC(=O)[C@@H](Cc1ccc(O)cc1)NC(=O)CNC(=O)[C@@H]1CCCN1C(=O)[C@H](CC(C)C)NC(=O)[C@@H](N)Cc1ccc(O)cc1)C(=O)N[C@H](Cc1ccccc1)C(=O)O [compound 136] (H-YLPG[dY]YAL[dF]-OH; N-terminus assumed) | 1,4 DF/F0 | 0.075 µM | 97 min | – | –
CC(C)C[C@H](NC(=O)[C@@H](N)Cc1ccc(O)cc1)C(=O)N1CCC[C@H]1C(=O)NCC(=O)N[C@@H](CCC(N)=O)C(=O)N[C@@H](Cc1ccc(O)cc1)C(=O)N[C@@H](C)C(=O)N1CCC[C@@H]1C(=O)N[C@H](Cc1ccccc1)C(=O)O [compound 125] (H-YLPGQYA[dP][dF]-OH; N-terminus assumed) | 1,69 DF/F0 | 0.0143 µM | 42 min | – | –
CC(C)C[C@@H](NC(=O)[C@H](Cc1c[nH]cn1)NC(=O)[C@@H](N)CO)C(=O)NCC(=O)N[C@@H](CCC(N)=O)C(=O)N[C@@H](Cc1ccccc1)C(=O)N[C@H](Cc1c[nH]c2ccccc12)C(=O)N[C@@H](Cc1ccccc1)C(=O)N[C@H](CO)C(=O)O [compound 139] (H-SH[dL]GQF[dW]F[dS]-OH; N-terminus assumed) | 1,55 DF/F0 | 0.104 µM | 56 min | – | –
